Here are results for eight compounds from ChEMBL document CHEMBL1142021, “Aglycon specificity profiling of alpha-glucosidases using synthetic probes” (Bioorg Med Chem Lett, 2005).

Bounds are passed on as bounds.

The target in assay [1] is T1, Alpha-glucosidase (Geobacillus stearothermophilus) (UniProt P94451).
T1 sequence (whole entry): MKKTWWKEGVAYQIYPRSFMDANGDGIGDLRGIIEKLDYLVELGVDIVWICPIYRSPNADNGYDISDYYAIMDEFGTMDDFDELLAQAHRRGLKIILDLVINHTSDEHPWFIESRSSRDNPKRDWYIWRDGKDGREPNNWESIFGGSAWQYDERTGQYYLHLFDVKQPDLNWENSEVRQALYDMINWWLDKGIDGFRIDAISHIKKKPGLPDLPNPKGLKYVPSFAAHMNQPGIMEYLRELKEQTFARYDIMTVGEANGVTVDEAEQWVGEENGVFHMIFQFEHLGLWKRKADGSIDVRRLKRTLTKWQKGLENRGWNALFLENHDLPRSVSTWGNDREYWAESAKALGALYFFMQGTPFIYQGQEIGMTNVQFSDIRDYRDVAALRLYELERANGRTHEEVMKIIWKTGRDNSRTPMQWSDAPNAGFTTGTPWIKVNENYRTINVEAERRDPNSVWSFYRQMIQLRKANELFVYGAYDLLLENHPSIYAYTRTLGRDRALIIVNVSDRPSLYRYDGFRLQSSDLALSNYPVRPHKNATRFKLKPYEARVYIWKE
In words: Inhibition of Bacillus stearothermophilus glucosidase (of family 13 alpha-glucosidase) at 1 umol/mL.

Assay [2] deals with T2, Alpha-glucosidase (Aspergillus niger) (UniProt P56526).
T2 sequence (whole entry): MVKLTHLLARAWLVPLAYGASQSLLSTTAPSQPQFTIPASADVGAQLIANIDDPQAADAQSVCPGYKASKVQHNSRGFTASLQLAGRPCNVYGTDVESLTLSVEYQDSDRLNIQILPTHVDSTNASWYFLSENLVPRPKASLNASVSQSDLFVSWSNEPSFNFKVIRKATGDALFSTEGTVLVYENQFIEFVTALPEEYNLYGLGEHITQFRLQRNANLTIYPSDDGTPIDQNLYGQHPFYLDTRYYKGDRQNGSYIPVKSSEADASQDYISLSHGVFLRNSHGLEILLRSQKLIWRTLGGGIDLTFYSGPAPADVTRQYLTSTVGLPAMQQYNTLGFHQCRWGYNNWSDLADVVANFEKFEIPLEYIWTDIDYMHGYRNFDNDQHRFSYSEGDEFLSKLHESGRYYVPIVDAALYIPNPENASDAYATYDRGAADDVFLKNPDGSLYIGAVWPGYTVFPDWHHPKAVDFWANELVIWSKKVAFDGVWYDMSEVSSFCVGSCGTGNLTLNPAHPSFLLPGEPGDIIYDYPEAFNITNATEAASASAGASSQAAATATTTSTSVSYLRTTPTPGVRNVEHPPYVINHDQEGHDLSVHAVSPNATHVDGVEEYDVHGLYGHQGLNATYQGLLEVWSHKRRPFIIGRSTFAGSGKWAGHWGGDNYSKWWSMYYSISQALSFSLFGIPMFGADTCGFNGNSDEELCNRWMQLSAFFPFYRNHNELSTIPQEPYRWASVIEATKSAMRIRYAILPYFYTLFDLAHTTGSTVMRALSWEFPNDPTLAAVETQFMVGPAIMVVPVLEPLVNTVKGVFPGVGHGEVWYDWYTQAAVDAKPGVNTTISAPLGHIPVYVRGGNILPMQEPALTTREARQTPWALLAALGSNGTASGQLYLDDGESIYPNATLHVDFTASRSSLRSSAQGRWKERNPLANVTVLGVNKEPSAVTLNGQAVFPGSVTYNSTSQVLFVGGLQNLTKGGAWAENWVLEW
In words: Inhibition of Aspergillus niger glucosidase (of family 31 alpha-glucosidase) at 1 umol/mL.

Assay [3] addresses T3, Alpha-glucosidase (Apis mellifera) (UniProt Q17058).
T3 sequence (whole entry): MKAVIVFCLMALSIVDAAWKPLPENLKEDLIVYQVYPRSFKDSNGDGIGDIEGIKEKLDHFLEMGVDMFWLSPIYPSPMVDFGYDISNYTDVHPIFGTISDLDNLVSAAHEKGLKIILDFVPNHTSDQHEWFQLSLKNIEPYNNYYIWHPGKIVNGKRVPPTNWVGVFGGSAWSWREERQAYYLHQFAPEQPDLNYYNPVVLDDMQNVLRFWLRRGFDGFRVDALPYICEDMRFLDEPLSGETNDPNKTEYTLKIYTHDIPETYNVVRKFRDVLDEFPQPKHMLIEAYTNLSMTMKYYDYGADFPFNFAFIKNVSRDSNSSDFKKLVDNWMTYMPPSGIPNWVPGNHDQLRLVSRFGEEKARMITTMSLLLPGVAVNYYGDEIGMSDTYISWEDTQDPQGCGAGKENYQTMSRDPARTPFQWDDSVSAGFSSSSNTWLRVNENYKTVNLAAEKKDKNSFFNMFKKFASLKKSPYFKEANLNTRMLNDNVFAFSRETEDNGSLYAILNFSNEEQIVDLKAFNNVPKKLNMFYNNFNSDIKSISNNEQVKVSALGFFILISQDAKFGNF
Nature of the assay: Inhibition of family 13 alpha-glucosidase isoform III from honey bee at 1 umol/mL.

Assay [4] deals with T3, Alpha-glucosidase (Apis mellifera). In words: Inhibition of family 13 alpha-glucosidase isoform I from honey bee at 1 umol/mL.
For the next assay, the species on record is Homo sapiens. Nature of the assay: Inhibition of alpha-Galactosidase at 5 umol/mL.
Assay [5] concerns the target T3, Alpha-glucosidase (Apis mellifera). In words: Inhibition of family 13 alpha-glucosidase isoform II from honey bee at 1 umol/mL.

Broadly, the inhibition is the share of the control response that was lost under treatment. Read a high inhibition as a response far below the control.

Turning to `CC(C)(C)C(=O)NCC1OC(CO)C(O)C(O)C1O` (stereo unspecified), the inhibition in assay [1] was less than 1%; in assay [2], 1.2%; in assay [3], less than 1%; in assay [4], less than 1%; in the assay listed under Homo sapiens, less than 1%; in assay [5] it was less than 1%.
Take `O=C(CCCCO)NCC1OC(CO)C(O)C(O)C1O` (stereo unspecified): the inhibition in assay [1] is 100%; in assay [2], 6.8%; in assay [3], less than 1%; in assay [4], 37.5%; in the assay filed under Homo sapiens, less than 1%; in assay [5], 21.4%.
For `O=C(CO)NCC1OC(CO)C(O)C(O)C1O` (stereo unspecified), the inhibition in assay [1] was less than 1%; in assay [2] it was 6.6%; in assay [3], less than 1%; in assay [4], less than 52.3%; in the assay listed under Homo sapiens, less than 1%; in assay [5], 4.4%.
For `O=C(NCC1OC(CO)C(O)C(O)C1O)c1ccccc1` (stereo unspecified), the inhibition in assay [1] is less than 1%; in assay [2], 14%; in assay [3] it was less than 1%; in assay [4], 4.6%; in the assay listed under Homo sapiens, less than 1%.
For the compound `CC(=O)NCC1OC(CO)C(O)C(O)C1O` (stereo unspecified), the inhibition in assay [1] was less than 1%; in assay [2], 23.3%; in assay [3] it was less than 1%; in assay [4], 10.4%; in the assay filed under Homo sapiens it was less than 1%; in assay [5], less than 1%.
Turning to `O=C(CCCO)NCC1OC(CO)C(O)C(O)C1O` (stereo unspecified), the inhibition was less than 1% in assay [1]; less than 1% in assay [2]; less than 1% in assay [3]; less than 1% in the assay filed under Homo sapiens; 3.6% in assay [5].
For the compound `O=C(CCCCCO)NCC1OC(CO)C(O)C(O)C1O` (stereo unspecified), the inhibition is less than 1% in assay [1]; less than 1% in assay [2]; less than 1% in assay [3]; less than 1% in assay [4]; less than 1% in the assay filed under Homo sapiens; 4.4% in assay [5].
Consider `O=C(CCO)NCC1OC(CO)C(O)C(O)C1O` (stereo unspecified), for which the inhibition was less than 1% in assay [1]; 2.6% in assay [2]; 3.2% in assay [3]; less than 1% in assay [4]; less than 1% in the assay listed under Homo sapiens; 2.7% in assay [5].
